Results from patent US20030105121A1, “Method of preventing lipodystrophy syndrome or reversing a pre-existing syndrome in HIV-infected patients being treated with antiretroviral agents” (priority 1999, published 2003).
“Also recorded” adds a separate entry of the source.

Key:
[1] = human, in vivo
Source text: (§1) Because individual examples of treatment histories are of little value in discerning the effectiveness of a given treatment for HIV/AIDS infections, and especially effectiveness in reducing the likelihood of developing a highly variable side effect such as lipodystrophy, due among other things to wide differences in the initial extent of the infection as well as in the response of any given individual, a group of 85 different cases will be evaluated as a group in the following discussion. This number is believed to be a sufficiently large statistical sample to permit a reasonable judgment to be made of the effectiveness of the treatment of this invention.
The medication status of the group at the time of initiation of PI treatment was as follows: Due to historical circumstances, i.e. the predilection in view of the earlier patent of the applicant to treating HIV/AIDS patients with naltrexone, all individuals of the group were already receiving naltrexone at the low dosage level. Based on blood count of […] lymphocytes, individual clinical history and personal patient preference, 60 had already been receiving, or were started on, lamivudine (NA) while 49 of the 65 were also receiving zidovudine (NA) and 4 of the 69 were receiving a combination of lamivudine and stavovudine, bearing in mind that the NA group of antivirals had been available for the longest time. […] Patients already on any of the NA agents, as just specified, were continued on this treatment during the study. The remaining 25 were receiving no medications (other than naltrexone) at the start of the study.

lipodystrophy = assay: Case histories (Examples a-g): LDN treatment of pre-existing lipodystrophy; format: in vivo, human; details: for serum cholesterol after resuming naltrexone: Example a nine months (from 270), Example d 12 months (from 360)
Source text: One will have noted that the above case experience was entirely focused on limiting the risk of patients who were at the time free of lipodystrophy symptoms developing such symptoms during their antiretroviral therapy. This is explained by the fact that due to historical circumstances, i.e. the only recent introduction of antiretroviral therapy, the patients in this group were all being treated with naltrexone as described before being exposed to antiretroviral therapy. […] This was not anticipated and is considered to be a quite surprising finding.

[2] = Long experience with low dose naltrexone: side effects; format: in vivo, human
Procedure: Long experience has shown the perhaps three percent (3%) of patients receiving the drug at a 4.5 mg. dosage per day may suffer sleep disturbance lasting more than two or three days. Where this has been observed, reduction of the dosage to 3.0 mg. generally returns the sleep pattern to normalcy.

HIV [3] = assay: Experience with low dose naltrexone treatment of HIV; format: in vivo, human; details: low dose naltrexone alone
Source text: I have already disclosed in U.S. Pat. No. 4,888,346, issued Dec. 19, 1989, as a continuation of Ser. No. 06/916,180, filed Oct. 7, 1986, the administration of an essentially pure opiate receptor antagonist at a low dose level to patients suffering from acquired immune deficiency syndrome (or AIDS) in any of its known states, including AIDS-related complex. For this treatment, the amount of the essentially pure opiate receptor antagonist was required to be at a quite low level corresponding in results to those obtained by the administration of Naltrexone at a dosage level of from 1.0 mg. to 10 mg., preferably at a dosage level of 1.0 mg. to about 5 mg., and most preferably up to about 3.0 mg, all per day. At dosage levels above about 10 mg. per day, not only were the desired therapeutic results not obtained but the effect of the treatment appeared to be negative in acerbating the disease.

HIV [4] = format: in vivo; details: four continuously undetectable patients, last six months of the study
Source text: as §1
The medication status of the group at the time of initiation of PI treatment was as follows: Due to historical circumstances, i.e. the predilection in view of the earlier patent of the applicant to treating HIV/AIDS patients with naltrexone, all individuals of the group were already receiving naltrexone at the low dosage level. Based on blood count of […] lymphocytes, individual clinical history and personal patient preference, 60 had already been receiving, or were started on, lamivudine (NA) while 49 of the 65 were also receiving zidovudine (NA) and 4 of the 69 were receiving a combination of lamivudine and stavovudine, bearing in mind that the NA group of antivirals had been available for the longest time. […]

lipodystrophy syndrome = details: in vivo; cited from earlier work
[5] = 3.0 mg qhs added to ARV, single cases
[6] = 3.0 mg qhs added to ARV, single cases, listed as LDN

For `CC(C)(C)NC(=O)[C@@H]1CN(Cc2cccnc2)CCN1C[C@@H](O)C[C@@H](Cc1ccccc1)C(=O)N[C@H]1c2ccccc2C[C@H]1O` [indinavir], the persistent side effects [1] was “mild nausea”.

With `O=C1CC[C@@]2(O)[C@H]3Cc4ccc(O)c5c4[C@@]2(CCN3CC2CC2)[C@H]1O5` [naltrexone, Naltrexone] the “serum triglycerides after resuming LDN” value (lipodystrophy; 3.0 mg qhs added to ARV, 12 months, from 620) was 140, the “reduction of "buffalo hump"” value (lipodystrophy; 3 mg qhs added to ARV, nine months) was “about 50%” and the “serum cholesterol after resuming naltrexone” value (lipodystrophy; 3 mg qhs added to ARV) was 190. The “serum cholesterol after resuming naltrexone” value (lipodystrophy; 3 mg qhs added to ARV, listed as LDN) was 220, the “other physical signs (subcutaneous tissue, breast size)” value (lipodystrophy; [5]) was “returned” and the waist size outcome (lipodystrophy; [5]) was “gradually reduced to its former size; also recorded: returned to their previous normal state”. For the same compound, the “other physical signs (subcutaneous tissue, breast size)” value (lipodystrophy; [6]) was “about one-half”, the waist size outcome (lipodystrophy; [6]) was “partially cleared by about one-half” and the “decrease in waist size” value (lipodystrophy; 4.5 mg qhs added to ARV, eight weeks) was 4 ″. For the same compound, the insulin need (lipodystrophy; 4.5 mg qhs added to ARV, four weeks, from 90 units) was 20 units per day, the waist size (lipodystrophy; 4.5 mg qhs added to ARV, three months, from 44″) was 40 ″ and the “"buffalo hump" outcome” value (lipodystrophy; 3.0-4.5 mg qhs added to ARV, single cases) was “completely disappeared; also recorded: shrank and eventually disappeared”. The “signs of lipodystrophy overall” value (lipodystrophy; 3.0-4.5 mg qhs added to ARV, single cases, about eight months, listed as LDN) was “gradually disappeared; also recorded: complete reversal; also recorded: gradual clearing in the residual signs”, the “"buffalo hump" outcome” value (lipodystrophy; 3.0-4.5 mg qhs added to ARV, single cases, listed as LDN) was “about one-half; also recorded: largely disappeared” and the “patients with sleep disturbance lasting more than two or three days” value ([2]; 4.5 mg. dosage per day) was about 3%. The “side effects or toxicity” value ([2]; low dose levels) was “minimal side effects or evidence of toxicity” and the “effect on the patient's HIV condition” value (HIV [3]) was “stabilizing effect”.

For `Cc1c(O)cccc1C(=O)N[C@@H](CSc1ccccc1)[C@H](O)CN1C[C@H]2CCCC[C@H]2C[C@H]1C(=O)NC(C)(C)C` [nelfinavir], the “change in viral levels after substitution of indinavir” value (HIV [4]) was “did not result in any appreciable change in viral levels” and the “side effect associated with the drug” value [1] was “persistent diarrhea”.

For `Cc1ccnc2c1NC(=O)c1cccnc1N2C1CC1` [nevirapine], the “patients developing body-wide allergic rashes with hives and itching” value [1] was “Seven”.

For `Cc1cn([C@H]2C=C[C@@H](CO)O2)c(=O)[nH]c1=O` [zerit, stavudine], the “rate or risk of lipodystrophy” value (lipodystrophy syndrome) is listed as “at least 40%”.
